Measured values reported in EP0008888A1, “Beta-lactam antibacterial compounds, their preparation and pharmaceutical compositions containing them” (BEECHAM GROUP PLC, priority 1978, dated 1980).
Values after ≈ are worked out from the molar mass of the structure shown. Read-outs that look alike come from different tables or passages of the source.

What was measured:
[1] = Solution stability of an aqueous solution (uv spectrum); assay type: physicochemical; details: aqueous solution (ca 2 mg ml^-1) stored at 5° for 2 months
Citrobacter freundii E8 [2] = test: Antibacterial activity (MIC); assay type: cell-based
Escherichia coli ESS = test: Antibacterial activity (MIC); assay type: cell-based
[3] = test system: Escherichia coli NCTC 10418; test: Antibacterial activity (MIC); assay type: cell-based
Escherichia coli 0111 [4] = test: Antibacterial activity (MIC); assay type: cell-based
[5] = test system: Escherichia coli ATCC 27166; test: Antibacterial activity (MIC); assay type: cell-based
Klebsiella aerogenes A [6] = test: Antibacterial activity (MIC); assay type: cell-based
[7] = test system: Salmonella typhimurium CT10; test: Antibacterial activity (MIC); assay type: cell-based
Shigella sonnei MB11967 = test: Antibacterial activity (MIC); assay type: cell-based
[8] = test system: Branhamella catarrhalis 1502; test: Antibacterial activity (MIC); assay type: cell-based
[9] = test system: Bacillus subtilis ATCC 6633; test: Antibacterial activity (MIC); assay type: cell-based
[10] = test system: Staphylococcus aureus Oxford; test: Antibacterial activity (MIC); assay type: cell-based
[11] = test system: Streptococcus pneumoniae CN33; test: Antibacterial activity (MIC); assay type: cell-based
[12] = test system: Streptococcus pyogenes CN10; test: Antibacterial activity (MIC); assay type: cell-based
Citrobacter freundii E8 [13] = test: MIC in a standard test; assay type: cell-based
Enterobacter cloacoae N1 = test: MIC in a standard test; assay type: cell-based
Escherichia coli 0111 [14] = test: MIC in a standard test; assay type: cell-based
Escherichia coli JT39 = test: MIC in a standard test; assay type: cell-based
Klebsiella aerogenes A [15] = test: MIC in a standard test; assay type: cell-based
Proteus mirabilis C977 = test: MIC in a standard test; assay type: cell-based
Proteus morganii I580 = test: MIC in a standard test; assay type: cell-based; details: Morganella morganii
Proteus rettgeri WM16 = test: MIC in a standard test; assay type: cell-based; details: Providencia rettgeri
Proteus vulgaris WO91 = test: MIC in a standard test; assay type: cell-based
Pseudomonas aeruginosa A = test: MIC in a standard test; assay type: cell-based
[16] = test system: Salmonella typhimurium CT10; test: MIC in a standard test; assay type: cell-based; details: Salmonella enterica
Serratia marcescens US20 = test: MIC in a standard test; assay type: cell-based
Shigella sonnei MB 11967 = test: MIC in a standard test; assay type: cell-based; details: MB11967
Bacillus subtilis A = test: MIC in a standard test; assay type: cell-based
[17] = test system: Staphylococcus aureus Oxford; test: MIC in a standard test; assay type: cell-based
[18] = test system: Staphylococcus aureus Russell; test: MIC in a standard test; assay type: cell-based
[19] = test system: Staphylococcus aureus 1517; test: MIC in a standard test; assay type: cell-based
Streptococcus faecalis I = test: MIC in a standard test; assay type: cell-based; details: Enterococcus faecalis
[20] = test system: Streptococcus pneumoniae CN33; test: MIC in a standard test; assay type: cell-based
[21] = test system: Streptococcus pyogenes CN10; test: MIC in a standard test; assay type: cell-based
[22] = Citrobacter freundii, E8, Citrobacter freundii E8, read-out: MIC
[23] = Escherichia coli, NCTC10418, Escherichia coli NCTC 10418, read-out: MIC
[24] = Escherichia coli, 0111, Escherichia coli 0111, read-out: MIC
[25] = Escherichia coli, ATCC27166, Escherichia coli ATCC 27166, read-out: MIC
[26] = Klebsiella aerogenes, read-out: MIC
[27] = Salmonella enterica, TYPHIMURIUM, read-out: MIC
[28] = Shigella sonnei, MB11967, Shigella sonnei MB11967, read-out: MIC
[29] = Bacillus subtilis, ATCC6633, Bacillus subtilis ATCC 6633, read-out: MIC
[30] = standard test, Escherichia coli JT39, read-out: MIC

SMILES	MIC (Citrobacter freundii E8 [13]) [µg/mL]	MIC (Enterobacter cloacoae N1) [µg/mL]	MIC (Escherichia coli 0111 [14]) [µg/mL]	MIC (Klebsiella aerogenes A [15]) [µg/mL]	MIC (Proteus mirabilis C977) [µg/mL]	MIC (Proteus morganii I580) [µg/mL]	MIC (Proteus rettgeri WM16) [µg/mL]	MIC (Proteus vulgaris WO91) [µg/mL]	MIC (Pseudomonas aeruginosa A) [µg/mL]	MIC [16] [µg/mL]	MIC (Serratia marcescens US20) [µg/mL]	MIC (Shigella sonnei MB 11967) [µg/mL]	MIC (Bacillus subtilis A) [µg/mL]	MIC [17] [µg/mL]	MIC [18] [µg/mL]	MIC [19] [µg/mL]	MIC (Streptococcus faecalis I) [µg/mL]	MIC [20] [µg/mL]	MIC [21] [µg/mL]	further results
CCSC1=C(C(=O)[O-])N2C(=O)C(CC)C2C1.[Na+] (stereo not drawn)																				solution stability [1]: without deterioration
CCSC1=C(C(=O)OCc2ccc([N+](=O)[O-])cc2)N2C(=O)CC2C1 (racemic) [(±), p-Nitrobenzyl 3-ethylthio-7-oxo-1-azabicyclo [3,2,0]hept-2-ene-2-carboxylate]																				MIC (Citrobacter freundii E8 [2]; [22]): 50 µg/mL (≈ 144 µM); MIC (Escherichia coli ESS; Escherichia coli, read-out: MIC): 12.5 µg/mL (≈ 35.9 µM); MIC [3, 23]: 50 µg/mL (≈ 144 µM); MIC (Escherichia coli 0111 [4]; [24]): > 50 µg/mL; MIC [5, 25]: 12.5 µg/mL (≈ 35.9 µM); MIC (Klebsiella aerogenes A [6]; [26]): 25 µg/mL (≈ 71.8 µM); MIC [7, 27]: 50 µg/mL (≈ 144 µM); MIC (Shigella sonnei MB11967; [28]): > 50 µg/mL; MIC ([8]; Moraxella catarrhalis, 1502, Branhamella catarrhalis 1502, read-out: MIC): 1.2 µg/mL (≈ 3.44 µM); MIC [9, 29]: 25 µg/mL (≈ 71.8 µM); MIC ([10]; read-out: MIC): > 50 µg/mL; MIC ([11]; Streptococcus pneumoniae, CN33, Streptococcus pneumoniae CN33, read-out: MIC): 1.2 µg/mL (≈ 3.44 µM); MIC ([12]; Streptococcus pyogenes, CN10, Streptococcus pyogenes CN10, read-out: MIC): 1.2 µg/mL (≈ 3.44 µM)
CCSC1=C(C(=O)OCc2ccc([N+](=O)[O-])cc2)N2C(=O)CC2C1 (single isomer, unassigned; (+)) [(+), (+) p-Nitrobenzyl 3-ethylthio-7-oxo-1-azabicyclo[3.2.0] hept-2-ene-2-carboxylate]																				MIC (Citrobacter freundii E8 [2]; Citrobacter freundii E8): 25 µg/mL (≈ 71.8 µM); MIC (Escherichia coli ESS): 5.0 µg/mL (≈ 14.4 µM); MIC ([3]; Escherichia coli NCTC 10418): 25 µg/mL (≈ 71.8 µM); MIC (Escherichia coli 0111 [4]; Escherichia coli 0111): 50 µg/mL (≈ 144 µM); MIC ([5]; Escherichia coli ATCC 27166): 12.5 µg/mL (≈ 35.9 µM); MIC (Klebsiella aerogenes A [6]): 12.5 µg/mL (≈ 35.9 µM); MIC [7]: 50 µg/mL (≈ 144 µM); MIC (Shigella sonnei MB11967; Shigella sonnei MB11967): 50 µg/mL (≈ 144 µM); MIC ([8]; Branhamella catarrhalis 1502): 0.5 µg/mL (≈ 1.44 µM); MIC ([9]; Bacillus subtilis ATCC 6633): 25 µg/mL (≈ 71.8 µM); MIC [10]: >50 µg/mL; MIC ([11]; Streptococcus pneumoniae CN33): 0.5 µg/mL (≈ 1.44 µM); MIC ([12]; Streptococcus pyogenes CN10): 1.2 µg/mL (≈ 3.44 µM)
CCSC1=C(C(=O)OCc2ccc([N+](=O)[O-])cc2)N2C(=O)CC2C1 (single isomer, unassigned; (-)) [(-), (-) p-Nitrobenzyl 3-ethylthio-7-oxo-1-azabicyclo[3.2.0] hept-2-ene-2-carboxylate]																				MIC (Citrobacter freundii E8 [2]; [22]): > 50 µg/mL; MIC (Escherichia coli ESS): 25 µg/mL (≈ 71.8 µM); MIC [3, 23]: > 50 µg/mL; MIC (Escherichia coli 0111 [4]; [24]): > 50 µg/mL; MIC [5, 25]: 25 µg/mL (≈ 71.8 µM); MIC (Klebsiella aerogenes A [6]; [26]): 25 µg/mL (≈ 71.8 µM); MIC [7, 27]: > 50 µg/mL; MIC (Shigella sonnei MB11967; [28]): > 50 µg/mL; MIC ([8]; Branhamella catarrhalis 1502): 2.5 µg/mL (≈ 7.18 µM); MIC [9, 29]: 50 µg/mL (≈ 144 µM); MIC ([10]; read-out: MIC): > 50 µg/mL; MIC ([11]; Streptococcus pneumoniae CN33): 2.5 µg/mL (≈ 7.18 µM); MIC ([12]; Streptococcus pyogenes CN10): 2.5 µg/mL (≈ 7.18 µM)
CNC(=O)OCCSC1=C(C(=O)[O-])N2C(=O)CC2C1.[Na+] (stereo not drawn) [Example 37, Sodium 3-(2-methylcarbamoyloxyethylthio)-7-oxo-1-azabicyclo [3.2.0]hept-2-ene-2-carboxylate]	1.6	1.6	0.8	0.4	1.6	12.5	12.5	12.5	> 50	0.8	6.2	0.8	0.8	1.6	12.5	> 50	25	≤ 0.2	≤ 0.2	MIC (Escherichia coli JT39; Escherichia coli, JT39): 6.2 µg/mL
CSC1=C(C(=O)[O-])N2C(=O)CC2C1.[Na+] (stereo not drawn) [Example 42, Sodium 3-methylthio-7-oxo-1-azabicyclo[3.2.0]hept-2-ene-2-carboxylate]	1.6	3.1	3.1	3.1	25	25	25	25	> 50	3.1	3.1	3.1	1.6	6.2	12.5	> 50	> 50	≤ 0.2	0.8	MIC (Escherichia coli JT39; Escherichia coli, JT39): 6.2 µg/mL
O=C(O)C1=C(SCc2ccccc2)C[C@@H]2CC(=O)N12 [Example 47, Sodium 3-benzylthio-7-oxo-1-azabicyclo[3.2.0]hept-2-ene-2-carboxvlate]	25	12.5	6.2	6.2	50	50	> 50	> 50	> 50	6.2	50	6.2	1.6	6.2	6.2	> 50	> 50	≤ 0.2	1.6	MIC (Escherichia coli JT39; [30]): 50 µg/mL
CCSC1=C(C(=O)OC2OC(=O)c3ccccc32)N2C(=O)[C@@H](CC)[C@H]2C1 (stereo partly drawn) [Example 75, Phthalidyl 6β-ethyl - 3-ethylthio - 7 - oxo - 1 - azabicyclo [3.2.0] hept - 2 - ene - 2-carboxylate]	25 (≈ 66.9 µM)	12.5 (≈ 33.5 µM)	25 (≈ 66.9 µM)	25 (≈ 66.9 µM)	25 (≈ 66.9 µM)	25 (≈ 66.9 µM)	25 (≈ 66.9 µM)	50 (≈ 134 µM)	> 50	12.5 (≈ 33.5 µM)	50 (≈ 134 µM)	12.5 (≈ 33.5 µM)	5 (≈ 13.4 µM)	5 (≈ 13.4 µM)	12.5 (≈ 33.5 µM)	> 50	> 50	1.2 (≈ 3.21 µM)	5 (≈ 13.4 µM)	MIC (Escherichia coli JT39; [30]): 50 µg/mL (≈ 134 µM)
